# Patent US20250263416A1, “SPPL2a INHIBITORS” (Incyte Corporation, priority 2024, published 2025)
# Entries after “also recorded” stand apart in the source; their conditions may differ.
# Legend:
# [1] = In vivo epimerization and PK, statements covering all three preclinical models; set-up: species or system Sprague Dawley rats, beagle dogs, cynomolgus monkeys; details: for retention of deuterium in the process of epimerization: all species studied; for in vivo epimerization at the chiral carbon in the 7-membered ring: rat, monkey and dog models, PO; for exposures and PK (other than epimerization) across species: rats, monkeys, dogs
# Experimental: These factors may lead to accumulation and potenial toxicity. The effect on epimerization by substitution at the chiral carbon was tested by comparing Example A, Example 1, and Example 29 in the following preclinical in vivo pharmacokinetic models: Sprague Dawley rats, beagle dogs, and cynomolgus monkeys.
# Two groups of male Sprague Dawley rats (n=3 each) received either a single 10 mg/kg PO dose of Example A or Example 1 in a vehicle consisting of 0.5% methylcellulose in water. Blood samples were collected at 0.25, 0.5, 1, 2, 4, and 6 hours postdose.
# Male Sprague Dawley rats (n=3 each) received a single 3 mg/kg PO dose of Example 29 in a vehicle consisting of 5% dimethylacetamide (DMAC) in 50 mM citrate buffer w/0.5% methylcellulose. Blood samples were collected at predose, 0.25, 0.5, 1, 2, 4, 6, 8, 12, and 24 hours postdose.
# (§1) Three groups of male cynomolgus monkeys (n=2 each) received either a single 3 mg/kg PO dose of Example A, Example 1, or Example 29 in a vehicle consisting of 5% dimethylacetamide (DMAC) in 50 mM citrate buffer w/0.5% methylcellulose. Blood samples were collected at predose, 0.25, 0.5, 1, 2, 3, 4, 6, 8, 12, and 24 hours postdose.
# as §1, with “beagle dogs” for “cynomolgus monkeys”, “12, 24” for “12,”, “48” for “24”
# All blood samples were collected using EDTA as the anticoagulant and centrifuged to obtain plasma. Plasma concentrations of Example A, Example 1, and their respective diastereomers were determined under non-GLP conditions using standard reverse phase LC-MS/MS bioanalytical methods. The individual plasma concentration-time data was used to determine the area under the curve (AUC) values using GraphPad Prism (v9.3.1).
# human SPPL2a [2] = target: T1, human SPPL2a (Homo sapiens, UniProt Q8TCT8); assay: Nuclear translocation imaging assay for human SPPL2a (SPPL2a reporter U2OS cell line); assay type: cell-based; details: U2OS reporter cells, 24 h incubation
# T1 construct: expressed in transfected cells; host or cells: U2OS (SPPL2a reporter cell line)
# T1 sequence (Q8TCT8 26-520): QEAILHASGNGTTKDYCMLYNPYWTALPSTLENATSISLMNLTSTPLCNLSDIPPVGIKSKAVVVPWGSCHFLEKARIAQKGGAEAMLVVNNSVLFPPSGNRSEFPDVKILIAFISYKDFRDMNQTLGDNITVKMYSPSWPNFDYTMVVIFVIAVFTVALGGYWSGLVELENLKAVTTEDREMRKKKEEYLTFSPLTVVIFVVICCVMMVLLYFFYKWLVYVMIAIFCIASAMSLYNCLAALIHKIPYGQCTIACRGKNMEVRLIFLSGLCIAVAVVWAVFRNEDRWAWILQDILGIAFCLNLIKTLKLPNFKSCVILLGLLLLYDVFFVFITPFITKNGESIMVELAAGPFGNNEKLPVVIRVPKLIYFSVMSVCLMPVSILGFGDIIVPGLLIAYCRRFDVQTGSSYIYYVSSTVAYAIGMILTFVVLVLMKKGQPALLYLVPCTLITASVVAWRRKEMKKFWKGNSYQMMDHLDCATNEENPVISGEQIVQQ
# Experimental: The nuclear translocation imaging assays for human SPPL2a were performed using an SPPL2a reporter U2OS cell line as previously described (Velcicky et al 2018, Zhang et al 2017). These cells stably express human SPPL2a and a doxycycline inducible eGFP TNFα (aa 1-76) NTF fusion protein (SPPL2a substrate). Both Example 1 and Example A were added at indicated concentrations and cells were incubated for 24 h, washed, and fixed. Nuclei were stained with DAPI. Images were acquired on a confocal fluorescence microscope system LSM-800 (Carl Zeiss). Image data was analyzed by using mid-section from Z-stack images of at least 10 individual cells per sample. All data is presented as mean+SEM. Statistical significance was calculated with the ANOVA test using GraphPad Prism™ 10.
# human SPPL2a [3] = target: T1, human SPPL2a; assay: Western blot assay of TNFα-GFP cleavage in U2OS cells expressing human SPPL2a; assay type: cell-based; details: SPPL2a-U2OS reporter cells, 24 h
# Experimental: To confirm the cleavage of TNF-α in the U2OS cells that express human SPPL2a, a western blot assay was performed. The same cell line used for the imaging assays were used; these cells express human SPPL2a constitutively and an eGFP-labelled TNFα (aa 1-76) NTF substrate under a doxycycline promotor. In the presence of SPPL2a activity, TNFα-GFP is cleaved at the NTF, resulting in a single 54-56 kDa band (lower MW). If SPPL2a activity is inhibited, TNFα GFP processing is abrogated resulting in a higher molecular weight band (60-62 kDa; complete inhibition) and or both 54-56 kDa and 60-62 kDa bands (incomplete inhibition, smeared appearance) on the blot. Both Example 1 and Example A were added at indicated concentrations, and cells were incubated for 24 h with the inhibitors. Total cell lysated were prepared in ice cold-1X RIPA buffer containing protease inhibitor cocktail (AKR-190, Cell BioLabs). Lysates were collected and quantified for the total protein on NanoDrop using BCA kit (23227, Thermo Scientific). […] To detect cleaved and un-cleaved TNFα-GFP fragments, anti-GFP antibody (AF4240, R&D Biosystems) was used as a primary antibody and detected using anti-goat detection module (DM-006, ProteinSimple) according to the manufacturer's protocol. Data was analyzed using ProteinSimple compass software.
# [4] = test system: Imiquimod (IMQ)-induced psoriasis mouse model; assay: Imiquimod (IMQ)-induced psoriasis mouse model; assay type: in vivo, BALB/c female mice; details: 15 mg/kg PO BID
# Experimental: A comparative study was performed to evaluate the efficacy of the deuterated-inhibitor Example 1 to Example A in the mouse model of psoriasis. Briefly, BALB/c female mice (7-8 week age) were shaved on the dorsal skin and 62.5 mg of IMQ cream was applied daily until day 9. Simultaneously, 15 mg of IMQ cream was applied on one ear daily until day 9. Example 1 and Example A were given orally (PO) at 15 mg/kg, BID. Mice were monitored and clinical signs of psoriasis were recorded (PSI score), both on the dorsal skin (erythema, scaling & thickness) and on the IMQ-applied ear (thickness). All data is presented as mean+SEM. For comparison of more than two groups, ANOVA was used. Pearson product moment correlation was used to test for correlations. All statistical analysis was performed using GraphPad Prism™ 10.
# [5] = test system: Collagen-Induced Arthritis (CIA) mouse model; assay: Collagen-induced arthritis (CIA) mouse model; assay type: in vivo, DBA-1 mice; details: 50 mg/kg dose, compared to the vehicle
# Source text: Female DBA-1 mice (8-9 weeks old) were used in the CIA mouse model. This model is widely used to evaluate efficacy of immunomodulatory drugs on autoimmune diseases, such as arthritis. DBA/1 mice develop collagen-induced arthritis (CIA) after immunization with bovine type II collagen emulsified in complete Freund's adjuvant (CFA), followed by a booster dose 21 days later. Both the immunizations were given subcutaneously, approximately 25 mm from the base of the tail on opposite sides. Immunizations were performed under a short duration isoflurane anesthesia. Mice were evaluated for the disease progression up to 45 days. […] Statistical significance was determined using Two-way ANOVA with multiple comparison tests to compare all groups to the vehicle.
retention of deuterium in the process of epimerization [1],exposures and PK (other than epimerization) across species [1],SMILES,in vivo epimerization at the chiral carbon in the 7-membered ring [1],inhibition of nuclear translocation of TNFα-GFP (human SPPL2a [2]),TNFα-GFP cleavage inhibition (SPPL2a activity inhibition) (human SPPL2a [3]),dorsal PSI scores [4],ear thickness measurements [4],clinical signs of psoriasis disease ([4]; compared to vehicle group),Mouse IL-12 level in plasma ([4]; terminal day),Mouse TNFα level in plasma ([4]; terminal day),clinical signs of CIA [5]
retained,consistent,"[2H][C@@]1(NC(=O)[C@H](C)CNC(=O)c2sc(C(=O)NC)nc2C)C(=O)N2CCCN2Cc2ccccc21 [Example 1, N^2,4-Dimethyl-N^5—((R)-2-methyl-3-oxo-3-(((S)-11-oxo-2,3,10,11-tetrahydro-1H,5H-benzo[d]pyrazolo[1,2-a][1,2]diazepin-10-yl-10-d)amino)propyl)thiazole-2,5-dicarboxamide]",reduction of in vivo epimerization; also recorded: observed in all three models,inhibited; also recorded: comparable and significant TNFα-GFP inhibition of nuclear translocation,SPPL2a activity inhibition; also recorded: Comparable and significant TNFα-GFP cleavage inhibition,alleviate,alleviate,significantly reduced,significant reduction,significant reduction,significantly reduced
retained,consistent,"[2H]C([2H])([2H])NC(=O)c1nc(C)c(C(=O)NC[C@@H](C)C(=O)N[C@]2([2H])C(=O)N3CCCN3Cc3ccccc32)s1 [Example 29, 4-Methyl-N2-(methyl-d3)—N^5—((R)-2-methyl-3-oxo-3-(((S)-11-oxo-2,3,10,11-tetrahydro-1H,5H-benzo[d]pyrazolo[1,2-a][1,2]diazepin-10-yl-10-d)amino)propyl)thiazole-2,5-dicarboxamide]",observed in all three models,,,,,,,,
